Data taken from ChEMBL document CHEMBL3045914, “Response of dry bean to pre-plant incorporated and pre-emergence applications of S-metolachlor and fomesafen” (Crop Prot, 2009).

Tests used:
Assay type in all cases: organism-based
Phaseolus vulgaris [1] = experiment: Toxicity in Phaseolus vulgaris (black dry bean) assessed as visible injury on leaves at 2 times recommended dose treated at pre-emergence application after 14 days; settings: in vivo, other, 336 h
Phaseolus vulgaris [2] = experiment: Toxicity in Phaseolus vulgaris (black dry bean) assessed as visible injury on leaves at recommended dose treated at pre-plant incorporated application after 14 days; settings: in vivo, other, 336 h
Phaseolus vulgaris [3] = experiment: Toxicity in Phaseolus vulgaris (cranberry dry bean) assessed as visible injury on leaves at 2 times recommended dose treated at pre-emergence application after 14 days; settings: in vivo, other, 336 h
Phaseolus vulgaris [4] = experiment: Toxicity in Phaseolus vulgaris (dry bean) assessed as plant height at 280 to 560 g a.i. ha'-1; settings: in vivo
Phaseolus vulgaris [5] = experiment: Toxicity in Phaseolus vulgaris (kidney dry bean) assessed as visible injury on leaves at recommended dose treated at pre-emergence application after 14 days; settings: in vivo, other, 336 h
Phaseolus vulgaris [6] = experiment: Toxicity in Phaseolus vulgaris (dry bean) assessed as visible injury on leaves at 280 to 560 g a.i. ha'-1 after 28 days; settings: in vivo, 672 h
Phaseolus vulgaris [7] = experiment: Toxicity in Phaseolus vulgaris (dry bean) assessed as yield at 280 to 560 g a.i. ha'-1; settings: in vivo
Phaseolus vulgaris [8] = experiment: Toxicity in Phaseolus vulgaris (kidney dry bean) assessed as visible injury on leaves at recommended dose treated at pre-plant incorporated application after 14 days; settings: in vivo, other, 336 h
Phaseolus vulgaris [9] = experiment: Toxicity in Phaseolus vulgaris (dry bean)assessed as visible injury on leaves at 280 to 560 g a.i. ha'-1 after 7 days; settings: in vivo, 168 h
Phaseolus vulgaris [10] = experiment: Toxicity in Phaseolus vulgaris (white dry bean) assessed as visible injury on leaves at recommended dose treated at pre-plant incorporated application after 14 days; settings: in vivo, other, 336 h
Phaseolus vulgaris [11] = experiment: Toxicity in Phaseolus vulgaris (cranberry dry bean) assessed as visible injury on leaves at recommended dose treated at pre-plant incorporated application after 14 days; settings: in vivo, other, 336 h
Phaseolus vulgaris [12] = experiment: Toxicity in Phaseolus vulgaris (white dry bean) assessed as visible injury on leaves at 2 times recommended dose treated at pre-plant incorporated application after 14 days; settings: in vivo, other, 336 h
Phaseolus vulgaris [13] = experiment: Toxicity in Phaseolus vulgaris (white dry bean) assessed as visible injury on leaves at 2 times recommended dose treated at pre-emergence application after 14 days; settings: in vivo, other, 336 h
Phaseolus vulgaris [14] = experiment: Toxicity in Phaseolus vulgaris (dry bean)assessed as visible injury on leaves at 280 to 560 g a.i. ha'-1 after 14 days; settings: in vivo, 336 h
Phaseolus vulgaris [15] = experiment: Toxicity in Phaseolus vulgaris (white dry bean) assessed as visible injury on leaves at recommended dose treated at pre-emergence application after 14 days; settings: in vivo, other, 336 h
Phaseolus vulgaris [16] = experiment: Toxicity in Phaseolus vulgaris (black dry bean) assessed as visible injury on leaves at 2 times recommended dose treated at pre-plant incorporated application after 14 days; settings: in vivo, other, 336 h
Phaseolus vulgaris [17] = experiment: Toxicity in Phaseolus vulgaris (cranberry dry bean) assessed as visible injury on leaves at 2 times recommended dose treated at pre-plant incorporated application after 14 days; settings: in vivo, other, 336 h
Phaseolus vulgaris [18] = experiment: Toxicity in Phaseolus vulgaris (black dry bean) assessed as visible injury on leaves at recommended dose treated at pre-emergence application after 14 days; settings: in vivo, other, 336 h
Phaseolus vulgaris [19] = experiment: Toxicity in Phaseolus vulgaris (kidney dry bean) assessed as visible injury on leaves at 2 times recommended dose treated at pre-emergence application after 14 days; settings: in vivo, other, 336 h
Phaseolus vulgaris [20] = experiment: Toxicity in Phaseolus vulgaris (kidney dry bean) assessed as visible injury on leaves at 2 times recommended dose treated at pre-plant incorporated application after 14 days; settings: in vivo, other, 336 h
Phaseolus vulgaris [21] = experiment: Toxicity in Phaseolus vulgaris (dry bean) assessed as shoot dry weight per row at 280 to 560 g a.i. ha'-1; settings: in vivo
Phaseolus vulgaris [22] = experiment: Toxicity in Phaseolus vulgaris (cranberry dry bean) assessed as visible injury on leaves at recommended dose treated at pre-emergence application after 14 days; settings: in vivo, other, 336 h
Phaseolus vulgaris [23] = experiment: Toxicity in Phaseolus vulgaris (dry bean) assessed as visible injury on leaves at 1373 to 2746 g a.i. ha'-1 after 7 days; settings: in vivo, 168 h
Phaseolus vulgaris [24] = experiment: Toxicity in Phaseolus vulgaris (dry bean) assessed as visible injury on leaves at 1373 to 2746 g a.i. ha'-1 after 28 days; settings: in vivo, 672 h
Phaseolus vulgaris [25] = experiment: Toxicity in Phaseolus vulgaris (dry bean) assessed as shoot dry weight per row at 1373 to 2746 g a.i. ha'-1; settings: in vivo
Phaseolus vulgaris [26] = experiment: Toxicity in Phaseolus vulgaris (dry bean) assessed as plant height at 1373 to 2746 g a.i. ha'-1; settings: in vivo
Phaseolus vulgaris [27] = experiment: Toxicity in Phaseolus vulgaris (dry bean) assessed as visible injury on leaves at 1373 to 2746 g a.i. ha'-1 after 14 days; settings: in vivo, 336 h
Phaseolus vulgaris [28] = experiment: Toxicity in Phaseolus vulgaris (dry bean) assessed as yield at 1373 to 2746 g a.i. ha'-1; settings: in vivo

Structure (SMILES)	Activity (Phaseolus vulgaris [1])	Activity (Phaseolus vulgaris [2])	Activity (Phaseolus vulgaris [3])	Activity (Phaseolus vulgaris [5])	Activity (Phaseolus vulgaris [8])	Activity (Phaseolus vulgaris [10])	Activity (Phaseolus vulgaris [11])	Activity (Phaseolus vulgaris [12])	Activity (Phaseolus vulgaris [13])	Activity (Phaseolus vulgaris [15])	Activity (Phaseolus vulgaris [16])	Activity (Phaseolus vulgaris [17])	Activity (Phaseolus vulgaris [18])	Activity (Phaseolus vulgaris [19])	Activity (Phaseolus vulgaris [20])	Activity (Phaseolus vulgaris [22])	further results
CS(=O)(=O)NC(=O)c1cc(Oc2ccc(C(F)(F)F)cc2Cl)ccc1[N+](=O)[O-] [FOMESAFEN]	1.2%	0.8%	0%	0%	0.3%	0.5%	0.1%	0.2%	0.4%	0.1%	0.5%	0%	1%	0.2%	0.2%	0%	Activity (Phaseolus vulgaris [4]): 49 cm; Activity (Phaseolus vulgaris [6]): 0%; Crop_yield (Phaseolus vulgaris [7]): 2.4 tons/ha; Activity (Phaseolus vulgaris [9]): 0.2%; Activity (Phaseolus vulgaris [14]): 0.2%; Activity (Phaseolus vulgaris [21]): 40 g
CCc1cccc(C)c1N(C(=O)CCl)[C@@H](C)COC [S-METOLACHLOR]	5.5%	0.9%	0.1%	0%	0.1%	0.5%	0.1%	1.6%	6.6%	4.2%	0.7%	0.2%	3.4%	0.1%	0.7%	0%	Activity (Phaseolus vulgaris [23]): 0.7%; Activity (Phaseolus vulgaris [24]): 0.2%; Activity (Phaseolus vulgaris [25]): 39 g; Activity (Phaseolus vulgaris [26]): 49 cm; Activity (Phaseolus vulgaris [27]): 1%; Crop_yield (Phaseolus vulgaris [28]): 2.4 tons/ha
